Experimental data taken from ChEMBL document CHEMBL5528076, “Development of Selective Pyrido[2,3-d]pyrimidin-7(8H)-one-Based Mammalian STE20-Like (MST3/4) Kinase Inhibitors” (J Med Chem, 2024).

Key:
[1] = target: T1, Serine/threonine-protein kinase 26 (Homo sapiens, UniProt Q9P289); test: Binding affinity to recombinant MST4 (unknown origin) assessed as change in melting temperature by DSF analysis
Target sequence in this assay (Q9P289 2-416 limits assumed): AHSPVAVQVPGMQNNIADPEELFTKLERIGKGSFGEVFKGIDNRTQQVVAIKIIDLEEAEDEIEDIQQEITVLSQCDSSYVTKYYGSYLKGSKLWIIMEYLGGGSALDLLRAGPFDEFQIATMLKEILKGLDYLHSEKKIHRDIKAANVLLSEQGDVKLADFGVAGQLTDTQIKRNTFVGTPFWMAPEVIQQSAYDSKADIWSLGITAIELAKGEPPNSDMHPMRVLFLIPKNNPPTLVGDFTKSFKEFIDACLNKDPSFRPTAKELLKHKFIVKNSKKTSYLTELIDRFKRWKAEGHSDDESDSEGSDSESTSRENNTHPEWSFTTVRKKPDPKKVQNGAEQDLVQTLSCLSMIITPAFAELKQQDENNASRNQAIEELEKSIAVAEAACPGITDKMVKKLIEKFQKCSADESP

[2] = target: T2, Serine/threonine-protein kinase 4 (Homo sapiens) (UniProt Q13043); test: Binding affinity to recombinant MST1 (unknown origin) assessed as change in melting temperature by DSF analysis
T2 sequence (whole entry): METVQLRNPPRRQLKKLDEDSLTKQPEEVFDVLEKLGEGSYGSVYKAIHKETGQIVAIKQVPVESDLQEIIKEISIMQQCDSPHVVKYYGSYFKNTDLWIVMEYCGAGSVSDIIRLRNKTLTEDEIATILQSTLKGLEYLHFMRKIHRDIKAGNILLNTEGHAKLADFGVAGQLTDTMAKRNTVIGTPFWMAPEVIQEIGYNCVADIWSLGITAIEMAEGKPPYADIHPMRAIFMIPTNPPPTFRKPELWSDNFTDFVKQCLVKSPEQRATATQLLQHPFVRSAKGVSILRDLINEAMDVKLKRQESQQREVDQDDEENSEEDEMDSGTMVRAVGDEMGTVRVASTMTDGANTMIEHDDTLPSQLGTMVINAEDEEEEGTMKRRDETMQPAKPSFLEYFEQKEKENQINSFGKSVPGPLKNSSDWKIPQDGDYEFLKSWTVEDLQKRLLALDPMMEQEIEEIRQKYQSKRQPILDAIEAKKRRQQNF

[3] = target: Serine/threonine-protein kinase SIK2 (Homo sapiens, UniProt Q9H0K1); test: Inhibition of SIK2 (unknown origin) expressed in HEK293T cells using NanoGlo as substrate incubated for 20 hrs by NanoBRET assay; format: cell-based
Serine/threonine-protein kinase SIK2, sequence (Q9H0K1 whole entry): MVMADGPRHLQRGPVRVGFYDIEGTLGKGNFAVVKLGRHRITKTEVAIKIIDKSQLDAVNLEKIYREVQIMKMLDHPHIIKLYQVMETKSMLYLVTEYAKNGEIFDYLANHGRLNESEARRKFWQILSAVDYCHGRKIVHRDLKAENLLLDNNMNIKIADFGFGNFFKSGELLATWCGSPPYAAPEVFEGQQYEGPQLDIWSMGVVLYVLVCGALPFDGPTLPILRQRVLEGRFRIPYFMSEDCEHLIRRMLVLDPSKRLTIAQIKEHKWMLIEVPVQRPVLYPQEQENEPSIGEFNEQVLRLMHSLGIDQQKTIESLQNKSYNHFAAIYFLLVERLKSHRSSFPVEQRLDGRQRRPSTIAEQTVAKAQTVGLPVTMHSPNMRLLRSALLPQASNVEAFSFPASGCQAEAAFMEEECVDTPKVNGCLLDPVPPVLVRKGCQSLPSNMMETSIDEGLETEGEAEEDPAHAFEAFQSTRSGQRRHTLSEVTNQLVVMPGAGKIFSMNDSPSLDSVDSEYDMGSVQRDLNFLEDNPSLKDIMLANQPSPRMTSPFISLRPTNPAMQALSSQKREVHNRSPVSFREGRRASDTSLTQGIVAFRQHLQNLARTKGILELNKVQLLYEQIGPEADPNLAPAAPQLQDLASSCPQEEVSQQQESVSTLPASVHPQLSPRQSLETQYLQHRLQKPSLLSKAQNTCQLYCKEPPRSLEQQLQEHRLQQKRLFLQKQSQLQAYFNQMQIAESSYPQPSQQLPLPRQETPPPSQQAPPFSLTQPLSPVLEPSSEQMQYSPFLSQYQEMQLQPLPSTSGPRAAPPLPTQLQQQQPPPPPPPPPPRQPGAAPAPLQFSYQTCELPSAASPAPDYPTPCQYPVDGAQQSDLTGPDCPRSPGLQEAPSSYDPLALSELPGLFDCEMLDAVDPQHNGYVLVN

[4] = target: T3, Serine/threonine-protein kinase 3 (Homo sapiens) (UniProt Q13188); test: Binding affinity to recombinant MST2 (unknown origin) assessed as change in melting temperature by DSF analysis
T3 sequence (whole entry): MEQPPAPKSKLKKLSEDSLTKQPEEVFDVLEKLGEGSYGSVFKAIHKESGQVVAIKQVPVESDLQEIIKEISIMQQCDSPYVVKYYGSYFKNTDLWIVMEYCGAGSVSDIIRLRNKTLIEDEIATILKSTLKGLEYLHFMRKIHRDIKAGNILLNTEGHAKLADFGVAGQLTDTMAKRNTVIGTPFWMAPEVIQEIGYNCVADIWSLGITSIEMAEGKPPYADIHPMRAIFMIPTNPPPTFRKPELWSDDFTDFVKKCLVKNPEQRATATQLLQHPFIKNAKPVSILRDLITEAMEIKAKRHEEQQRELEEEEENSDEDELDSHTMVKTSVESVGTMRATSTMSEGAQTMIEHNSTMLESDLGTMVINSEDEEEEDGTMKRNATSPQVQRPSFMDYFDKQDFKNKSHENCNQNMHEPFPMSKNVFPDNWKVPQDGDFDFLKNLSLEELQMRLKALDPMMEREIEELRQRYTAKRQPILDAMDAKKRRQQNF

[5] = target: T4, Serine/threonine-protein kinase 3 (Homo sapiens, UniProt Q13188); test: Inhibition of MST2 (unknown origin) expressed in HEK293T cells using NanoGlo as substrate incubated for 20 hrs by NanoBRET assay; format: cell-based
T4 sequence (Q13188 whole entry): T3 sequence (whole entry)

[6] = target: T5, Serine/threonine-protein kinase 24 (Homo sapiens, UniProt Q9Y6E0); test: Inhibition of MST3 (unknown origin) expressed in lysed HEK293T cells using NanoGlo as substrate incubated for 20 hrs by NanoBRET assay; format: cell-based
Target sequence in this assay (Q9Y6E0 whole entry): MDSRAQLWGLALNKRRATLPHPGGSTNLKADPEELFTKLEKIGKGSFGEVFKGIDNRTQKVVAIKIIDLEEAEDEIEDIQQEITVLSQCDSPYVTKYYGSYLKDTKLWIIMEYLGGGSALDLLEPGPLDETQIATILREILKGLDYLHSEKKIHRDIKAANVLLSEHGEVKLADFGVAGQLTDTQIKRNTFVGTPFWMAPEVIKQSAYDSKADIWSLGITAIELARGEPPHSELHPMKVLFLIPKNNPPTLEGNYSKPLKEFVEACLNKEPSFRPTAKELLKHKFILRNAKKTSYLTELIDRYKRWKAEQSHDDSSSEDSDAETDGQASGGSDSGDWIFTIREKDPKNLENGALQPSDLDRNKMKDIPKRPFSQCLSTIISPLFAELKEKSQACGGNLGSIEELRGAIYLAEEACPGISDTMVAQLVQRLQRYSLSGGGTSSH

[7] = target: T5, Serine/threonine-protein kinase 24; test: Binding affinity to recombinant MST3 (unknown origin) assessed as change in melting temperature by DSF analysis
Target sequence in this assay (Q9Y6E0 whole entry, looked up): as the sequence (Q9Y6E0 whole entry) above

[8] = target: T1, Serine/threonine-protein kinase 26; test: Inhibition of MST4 (unknown origin) expressed in HEK293T cells using NanoGlo as substrate incubated for 20 hrs by NanoBRET assay; format: cell-based
Target sequence in this assay (Q9P289 whole entry): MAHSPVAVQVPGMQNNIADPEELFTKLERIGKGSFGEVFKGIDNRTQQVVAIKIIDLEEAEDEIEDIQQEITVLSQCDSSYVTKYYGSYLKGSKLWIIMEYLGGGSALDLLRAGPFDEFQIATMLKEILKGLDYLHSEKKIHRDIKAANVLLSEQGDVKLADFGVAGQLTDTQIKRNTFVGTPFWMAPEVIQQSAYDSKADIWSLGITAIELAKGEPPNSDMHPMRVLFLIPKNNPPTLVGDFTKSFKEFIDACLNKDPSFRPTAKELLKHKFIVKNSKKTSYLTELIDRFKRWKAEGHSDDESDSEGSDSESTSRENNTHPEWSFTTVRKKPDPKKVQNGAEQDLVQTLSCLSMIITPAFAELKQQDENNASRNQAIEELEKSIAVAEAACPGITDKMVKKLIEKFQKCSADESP

[9] = target: Serine/threonine-protein kinase PAK 1 (Homo sapiens) (UniProt Q13153); test: Binding affinity to recombinant PAK1 (unknown origin) assessed as change in melting temperature by DSF analysis
Serine/threonine-protein kinase PAK 1 (Homo sapiens), sequence (Q13153 whole entry): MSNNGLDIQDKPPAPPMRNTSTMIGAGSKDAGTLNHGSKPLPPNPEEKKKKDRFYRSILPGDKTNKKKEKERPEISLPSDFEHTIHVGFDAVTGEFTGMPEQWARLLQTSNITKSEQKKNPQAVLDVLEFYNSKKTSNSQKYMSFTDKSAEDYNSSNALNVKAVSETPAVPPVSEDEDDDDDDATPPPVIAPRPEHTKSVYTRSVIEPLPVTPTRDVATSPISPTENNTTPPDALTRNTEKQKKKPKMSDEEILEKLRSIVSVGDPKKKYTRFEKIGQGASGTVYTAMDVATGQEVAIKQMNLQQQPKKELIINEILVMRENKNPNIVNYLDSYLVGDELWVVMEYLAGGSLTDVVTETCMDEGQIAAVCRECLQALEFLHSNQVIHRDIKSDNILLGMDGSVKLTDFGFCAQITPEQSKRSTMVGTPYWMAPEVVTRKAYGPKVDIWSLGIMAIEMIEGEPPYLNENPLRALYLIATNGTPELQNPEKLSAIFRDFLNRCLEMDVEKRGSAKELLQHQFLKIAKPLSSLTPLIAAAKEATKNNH

[10] = target: T6, Serine/threonine-protein kinase 4 (Homo sapiens, UniProt Q13043); test: Inhibition of MST1 (unknown origin) expressed in HEK293T cells using NanoGlo as substrate incubated for 20 hrs by NanoBRET assay; format: cell-based
T6 sequence (Q13043 whole entry): T2 sequence (whole entry)

[11] = target: T5, Serine/threonine-protein kinase 24; test: Inhibition of MST3 (unknown origin) expressed in HEK293T cells using NanoGlo as substrate incubated for 20 hrs by NanoBRET assay; format: cell-based
Target sequence in this assay (Q9Y6E0 whole entry): as the sequence (Q9Y6E0 whole entry) above

SMILES | ΔTm [1] | ΔTm [2] | EC50 [3] | ΔTm [4] | EC50 [5] | EC50 [6] | ΔTm [7] | EC50 [8] | ΔTm [9] | EC50 [10] | EC50 [11]
Cc1cccc(-c2ccc(-c3cc4cnc(NCCCc5ccc(N)cc5)nc4n(CCCCN)c3=O)c(Cl)c2)n1 | 9.7 °C | 4.9 °C | 516 nM | 7.2 °C | 3600 nM | 57 nM | 12.2 °C | 681 nM | 6.8 °C | 3400 nM | –
Cc1cccc(-c2ccc(-c3cc4cnc(Nc5ccc(F)c(CO)c5)nc4n(CCCCN)c3=O)c(Cl)c2)n1 | 14.8 °C | 8.6 °C | 51 nM | 16 °C | 184 nM | 10 nM | 16.9 °C | 44 nM | 9.3 °C | 314 nM | –
CNc1ncc2cc(-c3ccc(-c4cccc(C)n4)cc3Cl)c(=O)n(CCC3CCNCC3)c2n1 | 7.8 °C | 6 °C | 78 nM | 8 °C | 1800 nM | – | – | 800 nM | 8.6 °C | 1600 nM | 60 nM
Cc1cccc(-c2ccc(-c3cc4cnc(NCCCN5CCNCC5)nc4n(CCCCN)c3=O)c(Cl)c2)n1 | 8.9 °C | 3.1 °C | 5900 nM | 15.8 °C | > 50000 nM | 33 nM | 13 °C | 2800 nM | 5 °C | > 50000 nM | –
COc1ccc(O)c(Nc2ncc3cc(-c4ccc(-c5cccc(C)n5)cc4Cl)c(=O)n(CCCCN)c3n2)c1 | 8.3 °C | 3.8 °C | 543 nM | 5.4 °C | 3100 nM | 163 nM | 11 °C | 793 nM | 4.5 °C | 3300 nM | –
CNc1ncc2cc(-c3ccc(-c4cccc(C)n4)cc3Cl)c(=O)n(C[C@H]3OC[C@H](N)CO3)c2n1 | – | – | – | – | 4600 nM | – | – | – | – | 30400 nM | –
Cc1cccc(-c2ccc(-c3cc4cnc(Nc5ccc(C)c(O)c5)nc4n(CCCCN)c3=O)c(Cl)c2)n1 | 15.9 °C | 8.1 °C | 37 nM | 13.2 °C | 537 nM | 34 nM | 17.5 °C | 60 nM | 9.1 °C | 530 nM | –
Cc1cccc(-c2ccc(-c3cc4cnc(Nc5cc(C(F)(F)F)ccc5C)nc4n(CCCCN)c3=O)c(Cl)c2)n1 | 9.5 °C | 5.8 °C | 5500 nM | 10.2 °C | 5500 nM | 367 nM | 13 °C | 2200 nM | 5.9 °C | 5700 nM | –
Cc1cccc(-c2ccc(-c3cc4cnc(Nc5ccc(O)cc5)nc4n(CCCCN)c3=O)c(Cl)c2)n1 | 15 °C | 8 °C | 62 nM | 13.7 °C | 369 nM | 23 nM | 17.1 °C | 44 nM | 9.2 °C | 419 nM | –
CNc1ncc2cc(-c3ccc(-c4cccc(C)n4)cc3Cl)c(=O)n(C[C@H]3CC[C@H](N)CC3)c2n1 | 8.2 °C | 7.9 °C | 16 nM | 10.8 °C | 552 nM | – | 10.8 °C | 500 nM | 8.4 °C | 660 nM | 48 nM
COc1cc(N2CCN(C)CC2)ccc1Nc1ncc2cc(-c3ccc(-c4cccc(C)n4)cc3Cl)c(=O)n(CCCCN)c2n1 | 6.7 °C | 4 °C | 153 nM | 7.4 °C | 16900 nM | 278 nM | 13.5 °C | 38300 nM | 8.8 °C | > 50000 nM | –
CNc1ncc2cc(-c3ccc(-c4cccc(C)n4)cc3Cl)c(=O)[nH]c2n1 | 0 °C | 0 °C | 1600 nM | 0.3 °C | – | – | 0.6 °C | – | 0 °C | – | –

The next lines start with the values.

ΔTm [1] | ΔTm [2] | EC50 [3] | ΔTm [4] | EC50 [5] | EC50 [6] | ΔTm [7] | EC50 [8] | ΔTm [9] | EC50 [10] | EC50 [11] | SMILES
7.2 °C | 2.8 °C | 162 nM | 4.4 °C | 19800 nM | – | 7.9 °C | 4300 nM | 4 °C | 26300 nM | 251 nM | CNc1ncc2cc(-c3ccc(-c4cccc(C)n4)cc3Cl)c(=O)n(CCCN)c2n1
5 °C | 3.4 °C | 505 nM | 6.3 °C | 6000 nM | – | 6.2 °C | 4500 nM | 4.5 °C | 6700 nM | 382 nM | CNc1ncc2cc(-c3ccc(-c4cccc(C)n4)cc3Cl)c(=O)n(CCCO)c2n1
3.3 °C | 1.6 °C | 1400 nM | 1.6 °C | 13700 nM | – | 5.5 °C | 14800 nM | 1.3 °C | > 50000 nM | 1200 nM | CNc1ncc2cc(-c3ccc(-c4cccc(C)n4)cc3Cl)c(=O)n(CCN)c2n1
4.4 °C | 3.9 °C | 2500 nM | 5 °C | 28500 nM | – | 6.7 °C | 13000 nM | 4.1 °C | 31400 nM | 420 nM | CNc1ncc2cc(-c3ccc(-c4cccc(C)n4)cc3Cl)c(=O)n(CCOC)c2n1
5.8 °C | 4 °C | 871 nM | 9 °C | 4400 nM | – | – | 3600 nM | 5 °C | 7700 nM | 288 nM | CNc1ncc2cc(-c3ccc(-c4cccc(C)n4)cc3Cl)c(=O)n(CCO)c2n1
5.5 °C | 2.4 °C | 266 nM | 6.1 °C | 2800 nM | – | 6.6 °C | 2200 nM | 6 °C | 3000 nM | 316 nM | CNc1ncc2cc(-c3ccc(-c4cccc(C)n4)cc3Cl)c(=O)n(CCCCCO)c2n1
5 °C | 3.8 °C | 138 nM | 7.1 °C | 3600 nM | – | 5.7 °C | 4000 nM | 5 °C | 3400 nM | 244 nM | CNc1ncc2cc(-c3ccc(-c4cccc(C)n4)cc3Cl)c(=O)n(CCCCO)c2n1
7.1 °C | 5.2 °C | 61 nM | 10.7 °C | 2500 nM | – | 9.2 °C | 2100 nM | 6.3 °C | 2500 nM | 92 nM | CNc1ncc2cc(-c3ccc(-c4cccc(C)n4)cc3Cl)c(=O)n(CCCCCN)c2n1
1.6 °C | 1.6 °C | 3200 nM | 1.3 °C | 7600 nM | – | 3.7 °C | 4600 nM | 3.2 °C | 12800 nM | 775 nM | CNc1ncc2cc(-c3ccc(-c4cccc(C)n4)cc3Cl)c(=O)n(C)c2n1
3.6 °C | 3.3 °C | 1300 nM | 8.6 °C | 4600 nM | – | 6.2 °C | 5500 nM | 4.8 °C | 5300 nM | 614 nM | CNc1ncc2cc(-c3ccc(-c4cccc(C)n4)cc3Cl)c(=O)n(CCCCOC)c2n1
4.1 °C | 3.6 °C | 1700 nM | 6.2 °C | 9300 nM | – | 5.1 °C | 7600 nM | 5.1 °C | 9200 nM | 594 nM | CNc1ncc2cc(-c3ccc(-c4cccc(C)n4)cc3Cl)c(=O)n(CCCOC)c2n1
